Reference: patent publication US20240409647A1, “BISPECIFIC BINDING PROTEINS AGAINST ALARMINS AND USES THEREOF” (SINOMAB BIOSCIENCE LIMITED, priority 2022, published 2024)

Assays:
[1] = test system: Th2 cell population in human PBMC; experiment: Th2 cell population in human PBMC culture (flow cytometry); assay type: cell-based; parameters: key: −: no inhibition; +: weak; ++: moderate; +++: strong inhibition; settings: IL-2 (10 unit/mL) and three alarmins (10 ng/ml), 5 days
From the text: (§1) While alarmins are known to work in concert to enhance ILC2 and Th2 cell functions such as increase in cell population, steroids such as Dexamethasone (Dex) can negate these effects, resulting in the mitigation of type 2 immune responses [Jia, Yi et al. American Journal Of Respiratory Cell And Molecular Biology, vol. 55, 5 (2016): 675-683]. ILC2 and Th2 cell population can be determined by flow cytometry (BD FACSVerse) following standard procedures known to those skilled in the art.

[2] = test system: ILC2 population in human PBMC; experiment: ILC2 cell population in human PBMC culture (flow cytometry); assay type: cell-based; parameters: key: −: no inhibition; +: weak; ++: moderate; +++: strong inhibition; settings: IL-2 (10 unit/mL) and three alarmins (10 ng/ml), 5 days
From the text: as §1

[3] = patients who discontinued ICS and LABA, 12 weeks; placebo 41%; cited from earlier work

Compound	Cell proliferation inhibition, Th2 [1]	Cell proliferation inhibition, ILC2 [2]	rate of loss of asthma control [3]
C[C@@H]1C[C@H]2[C@@H]3CCC4=CC(=O)C=C[C@]4(C)[C@@]3(F)[C@@H](O)C[C@]2(C)[C@@]1(O)C(=O)CO [Dex, Dexamethasone, reference compound]	+++	+	–
Dupilumab: anti-IL-4Ra antibody inhibiting both IL-4 and IL-13 responses [reference compound]	–	–	19%
